Among the data in patent publication US10357493B2, “Metalloenzyme inhibitor compounds” (Selenity Therapeutics (Bermuda), Ltd., priority 2017, dated 2019) are IC50 values, retold here.

One assay has as its target HDAC6 (Homo sapiens (Human), UniProt Q9UBN7). Briefly: HDAC6 enzymatic assay. The format is biochemical. Particulars: read-out: Human HDAC6 IC50. The essentials: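 Human HDAC6 activity was measured in duplicate 50 μl reactions holding 2 ng HDAC6, 10 uM of HDAC substrate and test compound in HDAC assay buffer (50 mM Tris-HCl, pH 7.4, 137 mM NaCl, 2.7 mM KCl, 0.05% Tween 20, 5 μg BSA) with 1% DMSO, for 17 hours at room temperature. HDAC Developer was added for 20 minutes before reading fluorescence at 360/460 nm.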

A further assay deals with HDAC1 (Homo sapiens (Human), UniProt Q13547). Description: HDAC1 enzymatic assay. The format is biochemical. The settings on record: read-out: Human HDAC1 IC50. The gist of the method:
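HDAC1 activity was measured in duplicate 50 μl reactions containing 0.5 ng HDAC1, 10 uM of HDAC substrate, and test compound in buffer (50 mM Tris-HCl, pH 7.4, 137 mM NaCl, 2.7 mM KCl, 0.05% Tween 20, 5 μg BSA) with 1% DMSO, incubated 17 hours at room temperature. HDAC Developer was then added for 20 minutes and fluorescence read at 360/460 nm.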

HDAC6, sequence (Q9UBN7 whole entry): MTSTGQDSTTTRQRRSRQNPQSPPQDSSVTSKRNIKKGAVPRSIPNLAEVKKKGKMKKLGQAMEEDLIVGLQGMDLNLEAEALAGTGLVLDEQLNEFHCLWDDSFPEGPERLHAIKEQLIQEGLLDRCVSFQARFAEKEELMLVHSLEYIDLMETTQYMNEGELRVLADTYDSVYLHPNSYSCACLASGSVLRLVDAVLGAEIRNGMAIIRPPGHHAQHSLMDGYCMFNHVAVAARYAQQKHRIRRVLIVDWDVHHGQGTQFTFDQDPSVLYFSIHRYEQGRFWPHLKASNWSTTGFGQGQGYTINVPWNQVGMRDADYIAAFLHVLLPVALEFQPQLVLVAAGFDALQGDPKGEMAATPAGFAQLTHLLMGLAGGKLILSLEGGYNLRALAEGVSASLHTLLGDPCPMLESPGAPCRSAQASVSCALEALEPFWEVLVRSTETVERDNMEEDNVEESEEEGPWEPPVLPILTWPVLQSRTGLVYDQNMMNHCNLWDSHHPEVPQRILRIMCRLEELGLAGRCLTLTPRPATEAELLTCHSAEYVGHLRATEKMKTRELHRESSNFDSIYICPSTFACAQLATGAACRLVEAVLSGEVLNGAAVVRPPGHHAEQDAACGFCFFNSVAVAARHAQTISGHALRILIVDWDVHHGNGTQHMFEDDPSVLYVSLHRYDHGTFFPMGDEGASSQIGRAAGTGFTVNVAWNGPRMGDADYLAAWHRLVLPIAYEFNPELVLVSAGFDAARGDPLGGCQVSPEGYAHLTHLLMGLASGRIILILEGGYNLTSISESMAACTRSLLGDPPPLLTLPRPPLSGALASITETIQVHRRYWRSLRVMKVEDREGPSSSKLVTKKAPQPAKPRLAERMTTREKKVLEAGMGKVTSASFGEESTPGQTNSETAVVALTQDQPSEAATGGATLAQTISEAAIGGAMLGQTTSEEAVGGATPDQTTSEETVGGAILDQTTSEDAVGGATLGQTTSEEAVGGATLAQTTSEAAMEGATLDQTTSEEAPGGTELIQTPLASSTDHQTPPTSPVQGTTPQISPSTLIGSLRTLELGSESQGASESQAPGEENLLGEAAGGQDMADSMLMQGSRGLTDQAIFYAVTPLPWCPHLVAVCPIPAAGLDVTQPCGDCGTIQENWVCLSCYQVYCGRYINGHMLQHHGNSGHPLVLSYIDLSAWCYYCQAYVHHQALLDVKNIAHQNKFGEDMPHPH
HDAC1, sequence (Q13547 whole entry): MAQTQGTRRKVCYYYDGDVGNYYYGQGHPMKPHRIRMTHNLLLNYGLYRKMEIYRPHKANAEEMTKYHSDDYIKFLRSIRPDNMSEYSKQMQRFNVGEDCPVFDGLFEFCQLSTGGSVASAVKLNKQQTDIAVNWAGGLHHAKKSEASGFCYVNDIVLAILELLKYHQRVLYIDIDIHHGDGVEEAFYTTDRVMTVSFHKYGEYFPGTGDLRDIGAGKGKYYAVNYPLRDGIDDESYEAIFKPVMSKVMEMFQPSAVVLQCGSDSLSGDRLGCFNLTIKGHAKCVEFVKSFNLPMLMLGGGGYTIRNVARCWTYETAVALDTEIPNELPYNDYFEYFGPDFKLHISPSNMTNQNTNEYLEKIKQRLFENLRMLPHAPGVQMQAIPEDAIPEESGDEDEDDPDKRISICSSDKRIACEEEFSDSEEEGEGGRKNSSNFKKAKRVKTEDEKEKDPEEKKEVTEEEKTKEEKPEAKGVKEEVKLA

Turning to `CCC(Nc1ncc(-c2nnc(C(F)F)o2)cn1)c1ccc(F)cc1` (stereo not shown) [Example 22, 5-(5-(difluoromethyl)-1,3,4-oxadiazol-2-yl)-N-(1-(4-fluorophenyl)propyl)pyrimidin-2-amine], the 50% inhibitory concentration (IC50) is 71 nM at HDAC6 and over 30000 nM at HDAC1.

On to `FC(F)(F)c1nnc(-c2cnc(NC3(c4ccccc4)CC3)nc2)o1` [Example 1, N-(1-phenylcyclopropyl)-5-(5-(trifluoromethyl)-1,3,4-oxadiazol-2-yl) pyrimidin-2-amine], for which the results for the 50% inhibitory concentration (IC50) at HDAC6 and at HDAC1 were 210 nM and over 30000 nM, respectively.

`CC(=O)N(C)CC(Nc1ncc(-c2nnc(C(F)F)o2)cn1)c1ccc(F)cc1` (single isomer, unassigned) [166(+), N-(2-((5-(5-(difluoromethyl)-1,3,4-oxadiazol-2-yl)pyrimidin-2-yl)amino)-2-(4-fluorophenyl)ethyl)-N-methylacetamide]: the IC50 was 93 nM on HDAC6 and over 30000 nM on HDAC1.

For the compound `CC(Nc1ncc(-c2nnc(C(F)F)o2)cn1)c1ccc(F)cn1` (stereo not shown) [Example 31, 5-(5-(difluoromethyl)-1,3,4-oxadiazol-2-yl)-N-(1-(5-fluoropyridin-2-yl)ethyl)pyrimidin-2-amine], the IC50 on HDAC6 was 120 nM; on HDAC1, over 30000 nM.

As for `O=C(C1CC1)N(CC(Nc1ncc(-c2nnc(C(F)F)o2)cn1)c1ccc(F)cc1)CC(F)(F)F` (single isomer, unassigned) [170(−), N-(2-((5-(5-(difluoromethyl)-1,3,4-oxadiazol-2-yl)pyrimidin-2-yl)amino)-2-(4-fluorophenyl)ethyl)-N-(2,2,2-trifluoroethyl)cyclopropanecarboxamide], the IC50 was 1000 nM at HDAC6 and over 30000 nM at HDAC1.

Consider `CC(C)(Nc1ncc(-c2nnc(C(F)F)o2)cn1)c1ccc(F)cc1F` [Example 97, 5-(5-(difluoromethyl)-1,3,4-oxadiazol-2-yl)-N-(2-(2,4-difluorophenyl)propan-2-yl)pyrimidin-2-amine], for which the IC50 on HDAC6 was 34 nM; on HDAC1, over 30000 nM.

On to `Fc1ccc(C2(Nc3ncc(-c4nnc(C(F)F)o4)cn3)CC2)c(F)c1` [Example 10, 5-(5-(difluoromethyl)-1,3,4-oxadiazol-2-yl)-N-(1-(2,4-difluorophenyl)cyclopropyl)pyrimidin-2-amine], for which the IC50 at HDAC6 is 9 nM; at HDAC1, over 100000 nM.

As for `Fc1ccc(Cl)cc1C1(Nc2ncc(-c3nnc(C(F)F)o3)cn2)CC1` [Example 76, N-(1-(5-chloro-2-fluorophenyl)cyclopropyl)-5-(5-(difluoromethyl)-1,3,4-oxadiazol-2-yl)pyrimidin-2-amine], the results for the concentration for half-maximal inhibition (IC50) on HDAC6 and on HDAC1 were 14 nM and over 30000 nM, respectively.

For `CC(=O)N1CCC(Nc2ncc(-c3nnc(C(F)F)o3)cn2)(c2ccc(F)cc2)CC1` [Example 26, 1-(4-((5-(5-(difluoromethyl)-1,3,4-oxadiazol-2-yl)pyrimidin-2-yl)amino)-4-(4-fluorophenyl)piperidin-1-yl)ethan-1-one], the IC50 on HDAC6 is 140 nM; on HDAC1, over 30000 nM.

For `CC(=O)N(CC(Nc1ncc(-c2nnc(C(F)F)o2)cn1)c1ccc(F)cc1)CC(F)(F)F` (single isomer, unassigned) [167(−), N-(2-((5-(5-(difluoromethyl)-1,3,4-oxadiazol-2-yl)pyrimidin-2-yl)amino)-2-(4-fluorophenyl)ethyl)-N-(2,2,2-trifluoroethyl)acetamide], the values for the IC50 at HDAC6 and on HDAC1 were 690 nM and over 30000 nM, respectively.

For the compound `CS(=O)(=O)N(CC(Nc1ncc(-c2nnc(C(F)F)o2)cn1)c1ccc(F)cc1F)CC(F)(F)F` (stereo not drawn) [138(+), N-(2-((5-(5-(difluoromethyl)-1,3,4-oxadiazol-2-yl)pyrimidin-2-yl)amino)-2-(2,4-difluorophenyl)ethyl)-N-(2,2,2-trifluoroethyl)methanesulfonamide], the figures for the IC50 on HDAC6 and on HDAC1 were 75 nM and over 30000 nM, respectively.

A word on the IC50: it is the concentration needed to halve the response being measured.
